Experimental data from ChEMBL document CHEMBL4196018, “New antitumor anthra[2,3-b]furan-3-carboxamides: Synthesis and structure-activity relationship” (Eur J Med Chem, 2018).
The source made the active and inactive calls. No cut-off for these calls is given here.

Columns and labels:
HCT-116 [1] = assay: Antiproliferative activity against p53 knockout human HCT116 cells after 72 hrs by MTT assay; type: functional, cell-based; settings: HCT-116, 72 h
[2] = Resistance index, ratio of IC50 for human K562/4 cells to IC50 for human K562 cells; type: functional
[3] = Resistance index, ratio of IC50 for p53 knockout human HCT116 cells to IC50 for human HCT116 cells; type: functional
HCT-116 [4] = assay: Antiproliferative activity against human HCT116 cells after 72 hrs by MTT assay; type: functional, cell-based; settings: HCT-116, 72 h
[5] = Antiproliferative activity against human K562/4 cells after 72 hrs by MTT assay; type: functional, cell-based; settings: K562/4, 72 h
HeLa = assay: Antiproliferative activity against human HeLa cells after 72 hrs by MTT assay; type: functional, cell-based
CCRF-CEM = assay: Antiproliferative activity against human CEM cells after 72 hrs by MTT assay; type: functional, cell-based
L1210 = assay: Antiproliferative activity against mouse L1210 cells after 48 hrs by MTT assay; type: functional, cell-based; settings: L1210, 48 h
K562 [6] = assay: Antiproliferative activity against human K562 cells after 72 hrs by MTT assay; type: functional, cell-based; settings: K562, 72 h
TMK-1 [7] = assay: Induction of ROS generation in human TMK1 cells at 0.1 to 1 uM after 30 mins by H2DCFDA staining based flow cytometry; type: functional, cell-based
[8] = Substrate activity at P-gp in human K562/4 cells assessed as test compound accumulation at 2 uM after 1 to 24 hrs by flow cytometry; type: ADME, cell-based
TMK-1 [9] = assay: Induction of apoptosis in human TMK1 cells after 24 hrs by Annexin V-FITC staining based flow cytometry; type: functional, cell-based
[10] = Drug uptake in human K562 cells at 2 uM after 1 to 24 hrs by flow cytometry; type: ADME, cell-based; settings: k562, 2 µM
MKN-45 [11] = assay: Induction of ROS generation in human MKN45 cells at 0.1 to 1 uM after 30 mins by H2DCFDA staining based flow cytometry; type: functional, cell-based
TMK-1 [12] = assay: Induction of apoptosis in human TMK1 cells at 1 uM after 24 hrs by Annexin V-FITC staining based flow cytometry relative to control; type: functional
Lymphocyte = assay: Cytotoxicity against human lymphocytes assessed as reduction in cell viability at 25 uM after 72 hrs by MTT assay; type: cell-based
[13] = target: T1, DNA topoisomerase 1 (Homo sapiens) (UniProt P11387); assay: Inhibition of human topoisomerase-1 using supercoiled pBR322 DNA as substrate after 30 mins by agarose gel electrophoresis method
T1 sequence (whole entry): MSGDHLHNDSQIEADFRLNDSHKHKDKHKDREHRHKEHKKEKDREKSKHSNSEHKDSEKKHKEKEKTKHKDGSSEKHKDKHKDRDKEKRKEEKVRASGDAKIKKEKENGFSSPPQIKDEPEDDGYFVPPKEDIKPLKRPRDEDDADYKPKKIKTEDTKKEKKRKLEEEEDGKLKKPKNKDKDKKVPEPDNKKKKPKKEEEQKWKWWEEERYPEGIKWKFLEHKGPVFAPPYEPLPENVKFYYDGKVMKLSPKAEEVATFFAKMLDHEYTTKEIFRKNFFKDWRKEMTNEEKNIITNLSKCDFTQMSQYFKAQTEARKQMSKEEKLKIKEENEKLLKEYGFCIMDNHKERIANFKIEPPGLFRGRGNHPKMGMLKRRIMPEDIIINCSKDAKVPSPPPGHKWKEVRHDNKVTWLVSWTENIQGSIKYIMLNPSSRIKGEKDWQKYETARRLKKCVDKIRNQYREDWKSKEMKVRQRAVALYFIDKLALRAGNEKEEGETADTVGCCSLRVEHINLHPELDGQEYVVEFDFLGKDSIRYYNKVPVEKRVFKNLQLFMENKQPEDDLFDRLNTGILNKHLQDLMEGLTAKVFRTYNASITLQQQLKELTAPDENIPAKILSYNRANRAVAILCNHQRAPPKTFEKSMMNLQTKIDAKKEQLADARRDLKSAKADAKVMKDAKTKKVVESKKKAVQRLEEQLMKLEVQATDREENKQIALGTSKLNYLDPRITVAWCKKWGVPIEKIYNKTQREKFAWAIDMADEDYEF

MKN-45 [14] = assay: Induction of apoptosis in human MKN45 cells at 1 uM after 24 hrs by Annexin V-FITC staining based flow cytometry relative to control; type: functional
MKN-45 [15] = assay: Induction of apoptosis in human MKN45 cells after 24 hrs by Annexin V-FITC staining based flow cytometry; type: functional, cell-based
[16] = Substrate activity at P-gp in human K562/4 cells assessed as test compound accumulation at 1 uM after 1 to 24 hrs by flow cytometry; type: ADME, cell-based
[17] = target: T1, DNA topoisomerase 1 (Homo sapiens); assay: Inhibition of human topoisomerase-1 at 1 to 30 uM using supercoiled pBR322 DNA as substrate after 30 mins by agarose gel electrophoresis method
K562 [18] = assay: Cell cycle arrest in human K562 cells at 1 uM up to 48 hrs by propidium iodide staining based flow cytometry; type: functional
Homo sapiens = species on record: Homo sapiens; assay: Cell cycle arrest in human K562/4 cells at 1 uM up to 48 hrs by propidium iodide staining based flow cytometry; type: functional
[19] = Substrate activity at P-gp in human K562/4 cells assessed as test compound accumulation at 2 uM after 1 to 24 hrs in presence of P-gp inhibitor tariquidar by flow cytometry; type: ADME, cell-based

SMILES | IC50 (HCT-116 [1]) [µM] | IC50 (HCT-116 [4]) [µM] | IC50 (HeLa) [µM] | IC50 (CCRF-CEM) [µM] | IC50 (L1210) [µM] | IC50 (K562 [6]) [µM] | Ratio IC50 [2] | Ratio IC50 [3] | IC50 [5] [µM] | further results
N[C@@H]1CCN(C(=O)c2coc3c(O)c4c(c(O)c23)C(=O)c2ccccc2C4=O)C1 | 5.1 | 5 | 3.3 | 4 | 2.5 | 2.3 | 1.6 | 1 | 3.7 | inhibition [13]: Dose-dependent effect
Cc1oc2c(Cl)c3c(c(Cl)c2c1C(=O)N1CC[C@H](N)C1)C(=O)c1ccccc1C3=O | 4 | 4.5 | 5 | 3.5 | 1.5 | 3.8 | 1.4 | 0.9 | 5.3 | –
COc1cc2c(cc1OC)CN(CCc1ccc(NC(=O)c3cc(OC)c(OC)cc3NC(=O)c3cnc4ccccc4c3)cc1)CC2 | – | – | – | – | – | – | – | – | – | Activity [16]: Not Active
NC1CCN(C(=O)c2coc3c(O)c4c(c(O)c23)C(=O)c2ccccc2C4=O)CC1 | 10 | 6 | 4.2 | 4 | 2.4 | 2.3 | 4.2 | 1.7 | 9.6 | –
N[C@H]1CCN(C(=O)c2c(C(F)(F)F)oc3c(O)c4c(c(O)c23)C(=O)c2ccccc2C4=O)C1 | 4.6 | 5.3 | 4.4 | 4 | 1.7 | 3.6 | 0.6 | 0.9 | 2.2 | Activity (K562 [18]): Active; Activity [8]: Not Active; inhibition [17]: inactive; Drug uptake [10]: Active; Activity (Homo sapiens): Active
COc1cccc2c1C(=O)c1c(O)c3c(c(O)c1C2=O)C[C@@](O)(C(=O)CO)C[C@@H]3O[C@H]1C[C@H](N)[C@H](O)[C@H](C)O1 [DOXORUBICIN] | – | – | – | – | – | – | – | – | 9.8 | Activity [8]: Active; Drug uptake [10]: Active; Activity [19]: Not Active
CN[C@H]1CCN(C(=O)c2coc3c(O)c4c(c(O)c23)C(=O)c2ccccc2C4=O)C1 | 5.8 | 5.9 | 5 | 4.6 | 3.5 | 2.9 | 1.9 | 1 | 5.3 | –
Cc1oc2c(N)c3c(c(N)c2c1C(=O)N1CC[C@H](N)C1)C(=O)c1ccccc1C3=O | 5.4 | 7.6 | 3.7 | 4 | 3.1 | 9.2 | 0.9 | 0.7 | 8.3 | –
COc1c2c(c(OC)c3c(C(=O)N4CC[C@H](N)C4)c(C)oc13)C(=O)c1ccccc1C2=O | 50 | 41 | 27.9 | 23.2 | 20 | 28.6 | 1.4 | 1.2 | 38.7 | –

Now from value to molecule, other results behind:

IC50 (HCT-116 [1]) [µM] | IC50 (HCT-116 [4]) [µM] | IC50 (HeLa) [µM] | IC50 (CCRF-CEM) [µM] | IC50 (L1210) [µM] | IC50 (K562 [6]) [µM] | SMILES | Ratio IC50 [2] | Ratio IC50 [3] | IC50 [5] [µM] | further results
4 | 4.2 | 1.1 | 0.8 | 0.9 | 1.1 | O=C1c2ccccc2C(=O)c2c1c(O)c1occ(C(=O)NC3CCNCC3)c1c2O | 2.3 | 1 | 2.5 | –
2.4 | 3.2 | 2.3 | 3.9 | 4.4 | 1.3 | Cc1oc2c(O)c3c(c(O)c2c1CN1CC[C@H](N)C1)C(=O)c1ccccc1C3=O | 1.4 | 0.8 | 1.8 | –
3.4 | 2.8 | 1 | 1.3 | 0.7 | 1.1 | N[C@H]1CCN(C(=O)c2coc3c(O)c4c(c(O)c23)C(=O)c2ccccc2C4=O)C1 | 1.3 | 1.2 | 1.5 | Activity (TMK-1 [7]): Active; Activity [8]: Not Active; Activity (TMK-1 [9]): Dose-dependent effect; Drug uptake [10]: Active; Activity (MKN-45 [11]): Active; Activity (TMK-1 [12]): 60 - 90%; Activity (Lymphocyte): Non-Toxic; inhibition [13]: Dose-dependent effect; Activity (MKN-45 [14]): 60 - 90%; Activity (MKN-45 [15]): Dose-dependent effect
1 | 0.8 | 2 | 1 | 1 | 0.9 | O=C1c2ccccc2C(=O)c2c1c(O)c1occ(C(=O)NC3CCNC3)c1c2O (racemic) | 5 | 1.3 | 4.5 | –
1.3 | 1.2 | 0.7 | 0.5 | 0.6 | 0.9 | Cc1oc2c(O)c3c(c(O)c2c1C(=O)N1CC[C@H](N)C1)C(=O)c1ccccc1C3=O | 1.5 | 1.1 | 1.4 | Activity (TMK-1 [7]): Active; inhibition [17]: Active; Activity (TMK-1 [9]): Dose-dependent effect; Activity (MKN-45 [11]): Active; Activity (TMK-1 [12]): 60 - 90%; Activity (MKN-45 [14]): 60 - 90%; Activity (MKN-45 [15]): Dose-dependent effect
2.5 | 3 | 2.3 | 4 | 2 | 1.3 | NC1CCCN(C(=O)c2coc3c(O)c4c(c(O)c23)C(=O)c2ccccc2C4=O)C1 (racemic) | 2 | 0.8 | 2.6 | –
2.2 | 2.2 | 2.8 | 4.3 | 4.3 | 1.2 | Cc1oc2c(O)c3c(c(O)c2c1CN1CC[C@@H](N)C1)C(=O)c1ccccc1C3=O | 1.6 | 1 | 1.9 | –
0.8 | 0.8 | 2.2 | 3.2 | 2 | 1.1 | CN1CCN(NC(=O)c2coc3c(O)c4c(c(O)c23)C(=O)c2ccccc2C4=O)CC1 | 1.4 | 1 | 1.5 | –
